From patent US8586555B2, “Immunomodulatory compositions, formulations, and methods for use thereof” (Dynavax Technologies Corporation, priority 2001, dated 2013)

Columns and labels:
Format in all cases: cell-based
[1] = system: human peripheral blood mononuclear cells (hPBMC); assay: human PBMC assay, Example 3 (oligo and PLGA added at the same time, 48 well plates); details: for IFN-α / IFN-γ: oligo 20 μg/ml, PLGA 250 μg/ml, 24 hours; for IFN-α Mean / IFN-γ Mean: mean of donors 28033, 28034
Protocol: (§1) Hexameric oligonucleotides were tested for immunomodulatory activity alone and complexed with lactic acid/glycolic acid copolymer microcarrier beads using a human peripheral blood mononuclear cells (hPBMC) assay. Peripheral blood was collected from healthy volunteers by venipuncture using heparinized syringes. Blood was layered onto a FICOLL® (Amersham Pharmacia Biotech) cushion and centrifuged. hPBMCs, located at the FICOLL® interface, were collected, then washed twice with cold phosphate buffered saline (PBS). The cells were resuspended and cultured in 48 well plates at 2×10^6 cells/mL at 37° C. in RPMI 1640 with 10% heat-inactivated human AB serum plus 50 units/mL penicillin, 50 μg/mL streptomycin, 300 μg/mL glutamine, 1 mM sodium pyruvate, and 1×MEM non-essential amino acids (NEAA).
(§2) Oligonucleotides were tested as single agents, or in combination with PLGA microspheres (unmodified or cationic). All oligonucleotides contained 100% phosphorothioate linkages and were tested at 20 μg/ml. The PLGA microcarriers were used at 250 μg/ml. When oligos were tested with PLGA microcarriers, the oligo and the microcarriers were added at the same time to the culture. The cells were cultured in the in the presence of test samples for 24 hours, then cell-free medium was collected from each well and assayed for IFN-γ and IFN-α concentration. Two different oligonucleotides were used as controls: a first oligonucleotide known to have immunostimulatory activity (a 22mer oligonucleotide containing an ISS (“ISS+,” 5′-[…]-3′(SEQ ID NO:2)) and a second oligonucleotide of similar sequence but lacking immunostimulatory activity (“ISS−,” 5′-[…]-3′ (SEQ ID NO:1)). SAC (PANSORBIN® CalBiochem, 1/5000 dilution) and a untreated culture were used as additional positive and negative controls, respectively. SAC contains Staph. aureus (Cowan I) cell material. All samples were assayed in duplicate.
(§3) IFN-γ and IFN-α were assayed using CYTOSCREEN™ ELISA kits from BioSource International, Inc., according to the manufacturer's instructions.

[2] = system: human peripheral blood mononuclear cells (hPBMC); assay: human PBMC assay, Example 5 (96 well plates, premixed); details: for IFN-α Mean / IFN-γ Mean: mean of donors 28051-28054
Protocol: as §1, §2, §3
(§4) The immunomodulatory activity of the oligonucleotides used in Examples 3 and 4 was confirmed with the human PBMC assay using PBMCs from an additional four donors (donors 28051-28054). Oligonucleotides were tested alone or in combination with cationic PLGA as described in Example 3, except that 96 well plates were used instead of 48 well plates and the oligonucleotides were premixed with the cationic microspheres at room temperature for 15 minutes before they were added to the culture, rather than being added simultaneously to the culture.

[3] = system: human peripheral blood mononuclear cells (hPBMC); assay: human PBMC assay, Example 7 (oligo 20 μg/ml, cPLGA 100 μg/ml); details: for IFN-α Mean / IFN-γ Mean: mean of donors 28115-28118
Protocol: as §1, §2, §3, §4
Additional oligonucleotides, some incorporating modified bases, were tested for immunomodulatory activity in the human PBMC assay. Oligonucleotides were tested alone or in combination with cPLGA as described in Example 5. The oligonucleotides were premixed with the cationic PLGA microspheres for 15 minutes at room temperature at concentrations of 20 μg/ml and 100 μg/ml, respectively.

[4] = system: human peripheral blood mononuclear cells (hPBMC); assay: human PBMC assay, Example 4 (oligos and PLGA premixed 15 minutes); details: for IFN-α Mean / IFN-γ Mean: mean of donors 28044, 28045
Protocol: as §1, §2, §3
Additional hexameric and pentameric oligonucleotides were tested for immunomodulatory activity in the PBMC assay. Oligonucleotides 6-6 (5′-TCGAGA-3′), 6-8 (5′-GTCGAC-3′), 6-9 (5′-GTCGTT-3′), 6-2 (5′-TCGTTT-3′), 6-3 (5′-TTCGTT-3′), 6-4 (5′-TTTCGT-3′), 5-1 (5′-TCGTC-3′), and 5-2 (5′-TCGTT-3′) were tested alone or in combination with cationic PLGA as described in Example 3 except that the oligos and PLGA were premixed for 15 minutes room temperature before addition to the cultures. The test articles were assayed using PBMC isolated from donors 28044 and 28045.

[5] = system: human peripheral blood mononuclear cells (hPBMC); assay: human PBMC assay, Example 6
Protocol: as §1, §2, §3, §4
Additional oligonucleotides were tested for immunomodulatory activity in the human PBMC assay. Oligonucleotides were tested alone or in combination with cPLGA as described in Example 5.
Additional oligonucleotides were tested using hPBMCs from volunteers 154-157 using the same assay. Results, which are shown in Table 7, confirm the activity of oligonucleotides fitting the formula 5′-X1TCGX2-3′, where the oligonucleotide is a 3-6mer, X1 is zero or one nucleotide and X2 is zero to three nucleotides.

[6] = in combination with cationic PLGA
[7] = delivered as IMO/MC complexes (cPLGA)

5′-TGACTGTGAACGTTCGAGATGA-3′ [ISS+, reference compound]
IFN-α ([1]; donor 28033): 28 pg/mL
IFN-γ ([1]; donor 28033): 99 pg/mL
IFN-α ([1]; donor 28034): 106 pg/mL
IFN-γ ([1]; donor 28034): 223 pg/mL
IFN-α Mean [1]: 67 pg/mL
IFN-γ Mean [1]: 161 pg/mL
IFN-α ([2]; donor 28051): 12 pg/mL
IFN-γ ([2]; donor 28051): 66 pg/mL
IFN-α ([2]; donor 28052): 28 pg/mL
IFN-γ ([2]; donor 28052): 20 pg/mL
IFN-α ([2]; donor 28053): 12 pg/mL
IFN-γ ([2]; donor 28053): 72 pg/mL
IFN-α ([2]; donor 28054): 12 pg/mL
IFN-γ ([2]; donor 28054): 23 pg/mL
IFN-α Mean [2]: 16 pg/mL
IFN-γ Mean [2]: 45 pg/mL
IFN-α ([3]; donor 28115): 54 pg/mL
IFN-γ ([3]; donor 28115): 156 pg/mL
IFN-α ([3]; donor 28116): 29 pg/mL
IFN-γ ([3]; donor 28116): 125 pg/mL
IFN-α ([3]; donor 28117): 17 pg/mL
IFN-γ ([3]; donor 28117): 497 pg/mL
IFN-α ([3]; donor 28118): 0 pg/mL
IFN-γ ([3]; donor 28118): 46 pg/mL
IFN-α Mean [3]: 25 pg/mL
IFN-γ Mean [3]: 206 pg/mL
IFN-α ([4]; donor 28044): 401 pg/mL
IFN-γ ([4]; donor 28044): 2180 pg/mL
IFN-α ([4]; donor 28045): 39 pg/mL
IFN-γ ([4]; donor 28045): 669 pg/mL
IFN-α Mean [4]: 220 pg/mL
IFN-γ Mean [4]: 1425 pg/mL
IFN-α ([5]; donor 28075): 0 pg/mL
IFN-γ ([5]; donor 28075): 48 pg/mL
IFN-α ([5]; donor 28076): 73 pg/mL
IFN-γ ([5]; donor 28076): 76 pg/mL
IFN-α ([5]; donor 28077): 54 pg/mL
IFN-γ ([5]; donor 28077): 15 pg/mL
IFN-α ([5]; donor 28078): 94 pg/mL
IFN-γ ([5]; donor 28078): 72 pg/mL
IFN-α Mean ([5]; mean of donors 28075-28078): 55 pg/mL
IFN-γ Mean ([5]; mean of donors 28075-28078): 53 pg/mL
IFN-α Mean ([5]; mean of volunteers 154-157): 12 pg/mL
IFN-γ Mean ([5]; mean of volunteers 154-157): 317 pg/mL
IFN-α ([5]; volunteer 154): 31 pg/mL
IFN-γ ([5]; volunteer 154): 211 pg/mL
IFN-α ([5]; volunteer 155): 0 pg/mL
IFN-γ ([5]; volunteer 155): 131 pg/mL
IFN-α ([5]; volunteer 156): 15 pg/mL
IFN-γ ([5]; volunteer 156): 86 pg/mL
IFN-α ([5]; volunteer 157): 0 pg/mL
IFN-γ ([5]; volunteer 157): 840 pg/mL

5′-TCGTCG-3′ [Oligonucleotide 6-1]
IFN-α ([1]; donor 28033): 0 pg/mL
IFN-γ ([1]; donor 28033): 0 pg/mL
IFN-α ([1]; donor 28034): 40 pg/mL
IFN-γ ([1]; donor 28034): 4 pg/mL
immunomodulatory activity [1, 6]: active
IFN-α Mean [1]: 20 pg/mL
IFN-γ Mean [1]: 2 pg/mL
immunomodulatory activity ([2]; delivered alone): inactive
immunomodulatory activity [2, 7]: highly active
IFN-α ([2]; donor 28051): 0 pg/mL
IFN-γ ([2]; donor 28051): 2 pg/mL
IFN-α ([2]; donor 28052): 2 pg/mL
IFN-γ ([2]; donor 28052): 3 pg/mL
IFN-α ([2]; donor 28053): 1 pg/mL
IFN-γ ([2]; donor 28053): 1 pg/mL
IFN-α ([2]; donor 28054): 4 pg/mL
IFN-γ ([2]; donor 28054): 2 pg/mL
IFN-α Mean [2]: 2 pg/mL
IFN-γ Mean [2]: 2 pg/mL
IFN-α Mean ([5]; mean of volunteers 154-157): 0 pg/mL
IFN-γ Mean ([5]; mean of volunteers 154-157): 3 pg/mL
IFN-α ([5]; volunteer 154): 0 pg/mL
IFN-γ ([5]; volunteer 154): 0 pg/mL
IFN-α ([5]; volunteer 155): 0 pg/mL
IFN-γ ([5]; volunteer 155): 0 pg/mL
IFN-α ([5]; volunteer 156): 0 pg/mL
IFN-γ ([5]; volunteer 156): 11 pg/mL
IFN-α ([5]; volunteer 157): 0 pg/mL
IFN-γ ([5]; volunteer 157): 0 pg/mL

5′-TGACTGTGAACCTTAGAGATGA-3′ (DNA, all phosphorothioate, methylation of C not given here) [ISS−, reference compound]
IFN-α ([1]; donor 28033): 0 pg/mL
IFN-γ ([1]; donor 28033): 3 pg/mL
IFN-α ([1]; donor 28034): 31 pg/mL
IFN-γ ([1]; donor 28034): 8 pg/mL
IFN-α Mean [1]: 15 pg/mL
IFN-γ Mean [1]: 5 pg/mL
IFN-α ([2]; donor 28051): 0 pg/mL
IFN-γ ([2]; donor 28051): 5 pg/mL
IFN-α ([2]; donor 28052): 3 pg/mL
IFN-γ ([2]; donor 28052): 2 pg/mL
IFN-α ([2]; donor 28053): 1 pg/mL
IFN-γ ([2]; donor 28053): 3 pg/mL
IFN-α ([2]; donor 28054): 5 pg/mL
IFN-γ ([2]; donor 28054): 2 pg/mL
IFN-α Mean [2]: 2 pg/mL
IFN-γ Mean [2]: 3 pg/mL
IFN-α ([3]; donor 28115): 0 pg/mL
IFN-γ ([3]; donor 28115): 20 pg/mL
IFN-α ([3]; donor 28116): 0 pg/mL
IFN-γ ([3]; donor 28116): 22 pg/mL
IFN-α ([3]; donor 28117): 0 pg/mL
IFN-γ ([3]; donor 28117): 334 pg/mL
IFN-α ([3]; donor 28118): 0 pg/mL
IFN-γ ([3]; donor 28118): 14 pg/mL
IFN-α Mean [3]: 0 pg/mL
IFN-γ Mean [3]: 98 pg/mL
IFN-α ([4]; donor 28044): 0 pg/mL
IFN-γ ([4]; donor 28044): 410 pg/mL
IFN-α ([4]; donor 28045): 0 pg/mL
IFN-γ ([4]; donor 28045): 51 pg/mL
IFN-α Mean [4]: 0 pg/mL
IFN-γ Mean [4]: 231 pg/mL
IFN-α ([5]; donor 28075): 41 pg/mL
IFN-γ ([5]; donor 28075): 15 pg/mL
IFN-α ([5]; donor 28076): 23 pg/mL
IFN-γ ([5]; donor 28076): 15 pg/mL
IFN-α ([5]; donor 28077): 54 pg/mL
IFN-γ ([5]; donor 28077): 12 pg/mL
IFN-α ([5]; donor 28078): 27 pg/mL
IFN-γ ([5]; donor 28078): 16 pg/mL
IFN-α Mean ([5]; mean of donors 28075-28078): 36 pg/mL
IFN-γ Mean ([5]; mean of donors 28075-28078): 15 pg/mL
IFN-α Mean ([5]; mean of volunteers 154-157): 0 pg/mL
IFN-γ Mean ([5]; mean of volunteers 154-157): 43 pg/mL
IFN-α ([5]; volunteer 154): 0 pg/mL
IFN-γ ([5]; volunteer 154): 0 pg/mL
IFN-α ([5]; volunteer 155): 0 pg/mL
IFN-γ ([5]; volunteer 155): 17 pg/mL
IFN-α ([5]; volunteer 156): 0 pg/mL
IFN-γ ([5]; volunteer 156): 58 pg/mL
IFN-α ([5]; volunteer 157): 0 pg/mL
IFN-γ ([5]; volunteer 157): 98 pg/mL

5′-AACGTT-3′ [Oligonucleotide 6-16]
IFN-α ([1]; donor 28033): 3 pg/mL
IFN-γ ([1]; donor 28033): 0 pg/mL
IFN-α ([1]; donor 28034): 48 pg/mL
IFN-γ ([1]; donor 28034): 3 pg/mL
IFN-α induction [1, 6]: induce IFN-α in one of the two donors
IFN-α Mean [1]: 26 pg/mL
IFN-γ Mean [1]: 2 pg/mL
immunomodulatory activity [2, 7]: variable activity
IFN-α ([2]; donor 28051): 2 pg/mL
IFN-γ ([2]; donor 28051): 1 pg/mL
IFN-α ([2]; donor 28052): 1 pg/mL
IFN-γ ([2]; donor 28052): 2 pg/mL
IFN-α ([2]; donor 28053): 1 pg/mL
IFN-γ ([2]; donor 28053): 2 pg/mL
IFN-α ([2]; donor 28054): 2 pg/mL
IFN-γ ([2]; donor 28054): 8 pg/mL
IFN-α Mean [2]: 2 pg/mL
IFN-γ Mean [2]: 3 pg/mL
